According to PubChem BioAssay (NCI):
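GI50 marks 50% less growth. TGI: concentration producing complete growth inhibition.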

Columns and labels:
Assay in all cases: NCI anticancer screen, dose series, 384-well format
[1] = test system: NCI-H522 lung
[2] = test system: SN12C renal
[3] = test system: SF-268 CNS
[4] = test system: SK-MEL-2 melanoma
[5] = test system: DU-145 prostate
[6] = test system: MDA-MB-435 melanoma
[7] = test system: UACC-62 melanoma
[8] = test system: HCC-2998 colon
[9] = test system: T-47D breast
[10] = test system: HOP-92 NSCLC
[11] = test system: A549 NSCLC
[12] = test system: EKVX NSCLC
[13] = test system: CCRF-CEM leukemia
[14] = test system: UO-31 renal
[15] = test system: NCI/ADR-RES ovarian
[16] = test system: NCI-H226 lung
[17] = test system: COLO 205 colon
[18] = test system: HOP-62 NSCLC
[19] = test system: KM12 colon
[20] = test system: LOX IMVI melanoma
[21] = test system: RPMI-8226 leukemia
[22] = test system: NCI-H23 lung
[23] = test system: PC-3 prostate
[24] = test system: SK-OV-3 ovarian
[25] = test system: MDA-MB-231 breast
[26] = test system: ACHN renal
[27] = test system: MALME-3M melanoma
[28] = test system: M14 melanoma
[29] = test system: K-562 leukemia
[30] = test system: OVCAR-4 ovarian
[31] = test system: NCI-H460 NSCLC
[32] = test system: HCT-15 colon
[33] = test system: HS 578T breast
[34] = test system: HL-60(TB) leukemia
[35] = test system: 786-0 renal
[36] = test system: NCI-H322M lung
[37] = test system: SF-295 CNS
[38] = test system: SF-539 CNS
[39] = test system: BT-549 breast
[40] = test system: RXF 393 renal
[41] = test system: SNB-19 CNS
[42] = test system: HCT-116 colon
[43] = test system: OVCAR-3 ovarian
[44] = test system: HT29 colon
[45] = test system: UACC-257 melanoma
[46] = test system: SNB-75 CNS
[47] = test system: SK-MEL-28 melanoma

How did the GI50 [1] turn out when COC1(C(=O)N2Cc3nc(Cl)nc(N[C@H](C)c4cc(N)cc(C(F)(F)F)c4)c3C2)CCOCC1 was run?
The GI50 was 12.5 µM.

What about the TGI [1] of the same compound?
The TGI was 34.4 µM.

And the GI50 [2]?
Its GI50 is 10.1 µM.

And the TGI [2]?
The TGI was 25.3 µM.

What about the GI50 [3] of the same compound?
The GI50 was 17.2 µM.

And the TGI [3]?
The TGI was 34.8 µM.

What about the GI50 [4] of the same compound?
Its GI50 is 16.9 µM.

And the TGI [4]?
Its TGI is 31.1 µM.

What about the GI50 [5] of the same compound?
Its GI50 is 19.9 µM.

What about the TGI [5] of the same compound?
The TGI was 50.9 µM.

What about the GI50 [6] of the same compound?
Its GI50 is 17.9 µM.

What about the TGI [6] of the same compound?
The TGI was 36.9 µM.

What about the GI50 [7] of the same compound?
The GI50 was 15.6 µM.

What about the TGI [7] of the same compound?
Its TGI is 29.1 µM.

What about the GI50 [8] of the same compound?
Its GI50 is 15.4 µM.

What about the TGI [8] of the same compound?
The TGI was 30.3 µM.

What about the GI50 [9] of the same compound?
The GI50 was 12.4 µM.

And the TGI [9]?
The TGI was 32.5 µM.

What about the GI50 [10] of the same compound?
Its GI50 is 0.646 µM.

What about the TGI [10] of the same compound?
Its TGI is 18.6 µM.

And the GI50 [11]?
The GI50 was 24.5 µM.

And the TGI [11]?
The TGI was > 100 µM.

What about the GI50 [12] of the same compound?
The GI50 was 12.8 µM.

What about the TGI [12] of the same compound?
The TGI was 38.8 µM.

What about the GI50 [13] of the same compound?
The GI50 was 15.5 µM.

And the TGI [13]?
The TGI was 29.1 µM.

And the GI50 [14]?
Its GI50 is 15.2 µM.

What about the TGI [14] of the same compound?
Its TGI is 29.2 µM.

And the GI50 [15]?
Its GI50 is 17.5 µM.

And the TGI [15]?
Its TGI is 51.8 µM.

And the GI50 [16]?
Its GI50 is 13.4 µM.

And the TGI [16]?
Its TGI is 31 µM.

And the GI50 [17]?
Its GI50 is 24 µM.

What about the TGI [17] of the same compound?
Its TGI is 56.9 µM.

And the GI50 [18]?
Its GI50 is 15.6 µM.

What about the TGI [18] of the same compound?
The TGI was 29.3 µM.

What about the GI50 [19] of the same compound?
The GI50 was 3.55 µM.

And the TGI [19]?
Its TGI is 22 µM.

What about the GI50 [20] of the same compound?
Its GI50 is 18.7 µM.

What about the TGI [20] of the same compound?
Its TGI is 32.8 µM.

What about the GI50 [21] of the same compound?
Its GI50 is 10.6 µM.

And the TGI [21]?
Its TGI is 22.5 µM.

And the GI50 [22]?
The GI50 was 14.2 µM.

And the TGI [22]?
The TGI was 38.6 µM.

What about the GI50 [23] of the same compound?
Its GI50 is 16.3 µM.

And the TGI [23]?
Its TGI is 31.5 µM.

And the GI50 [24]?
The GI50 was 18.9 µM.

What about the TGI [24] of the same compound?
The TGI was 40.3 µM.

And the GI50 [25]?
The GI50 was 22.4 µM.

And the TGI [25]?
Its TGI is 55.3 µM.

What about the GI50 [26] of the same compound?
The GI50 was 20.4 µM.

What about the TGI [26] of the same compound?
The TGI was 67 µM.

What about the GI50 [27] of the same compound?
The GI50 was 16.2 µM.

What about the TGI [27] of the same compound?
The TGI was 34.3 µM.

And the GI50 [28]?
The GI50 was 17.5 µM.

And the TGI [28]?
The TGI was 32.3 µM.

What about the GI50 [29] of the same compound?
The GI50 was 0.152 µM.

What about the TGI [29] of the same compound?
The TGI was 15 µM.

And the GI50 [30]?
The GI50 was 15.6 µM.

And the TGI [30]?
Its TGI is 43.8 µM.

And the GI50 [31]?
Its GI50 is 16.4 µM.

And the TGI [31]?
The TGI was 31 µM.

What about the GI50 [32] of the same compound?
The GI50 was 18.6 µM.

What about the TGI [32] of the same compound?
Its TGI is 38.9 µM.

And the GI50 [33]?
The GI50 was 12.6 µM.

And the TGI [33]?
Its TGI is 25.7 µM.

And the GI50 [34]?
Its GI50 is 16.2 µM.

And the TGI [34]?
The TGI was 29.8 µM.

What about the GI50 [35] of the same compound?
Its GI50 is 16.5 µM.

What about the TGI [35] of the same compound?
Its TGI is 33.2 µM.

What about the GI50 [36] of the same compound?
The GI50 was 13.5 µM.

What about the TGI [36] of the same compound?
The TGI was 43.2 µM.

And the GI50 [37]?
The GI50 was 15.1 µM.

What about the TGI [37] of the same compound?
Its TGI is 32.5 µM.

And the GI50 [38]?
The GI50 was 15.3 µM.

What about the TGI [38] of the same compound?
The TGI was 28.7 µM.

What about the GI50 [39] of the same compound?
The GI50 was 14.5 µM.

And the TGI [39]?
The TGI was 28 µM.

What about the GI50 [40] of the same compound?
Its GI50 is 13.8 µM.

What about the TGI [40] of the same compound?
Its TGI is 27.4 µM.

And the GI50 [41]?
Its GI50 is 19.3 µM.

And the TGI [41]?
The TGI was > 100 µM.

What about the GI50 [42] of the same compound?
The GI50 was 16.3 µM.

And the TGI [42]?
Its TGI is 31.2 µM.

What about the GI50 [43] of the same compound?
The GI50 was 13.1 µM.

And the TGI [43]?
Its TGI is 26.2 µM.

And the GI50 [44]?
The GI50 was 18.2 µM.

And the TGI [44]?
Its TGI is 35.9 µM.

And the GI50 [45]?
The GI50 was 18.3 µM.

What about the TGI [45] of the same compound?
The TGI was 33.3 µM.

And the GI50 [46]?
The GI50 was 10.7 µM.

And the TGI [46]?
The TGI was 23.5 µM.

What about the GI50 [47] of the same compound?
Its GI50 is 18.5 µM.

And the TGI [47]?
Its TGI is 34.9 µM.
